In US20220002359A1, “Voltage-Gated Calcium Channel Auxilliary Subunit Alpha 2 Delta and Uses Thereof” (Novassay, S.A., priority 2017, published 2022):
Where two headings read alike, the source gives them in different places.

Experiments:
[1] = SPR binding of NVA1309 to immobilized P4-derived peptides, RU400 as % of peptide P4; conditions: for % BINDING (RU400) 0.5 mM: NVA1309 0.5 mM; for % BINDING (RU400) 1 mM: NVA1309 1 mM; for % BINDING (RU400) 2 mM: NVA1309 2 mM; for % BINDING (RU400) mean: mean of 0.5, 1 and 2 mM NVA1309; for NVA1309 binding to the peptide, in words: compared with peptide P4
Description: (§1) This peptide was covalently coupled via the carboxy-terminal cysteine to the surface (FC2) of a Biacore CM5 optical sensor chip as described in Example 4 following the Biacore thiol coupling procedure. Compound NVA1309 was injected as analyte at increasing concentrations and the binding reaction was monitored by generation of real time sensorgrams, presented as subtracted curves from the blank FC1 dextran reference surface (FIGS. 14A & 14B).
Sensorgram running conditions were: • Compound stock solution: 50 mM, Dimethyl sulfoxide (DMSO) • Compound working dilution: 0.5-2 mM • Running buffer: HBS-P • Flow rate: 30 μl/min
This peptide was covalently coupled via the carboxy-terminal cysteine to the surface (FC3) of a new Biacore CM5 optical sensor chip using the Biacore thiol coupling procedure. Peptide P4 was immobilized on FC2 as a positive reference control, flow cell FC1 was left blank as negative background binding reference. Compound NVA1309 was injected as analyte at increasing concentrations and the binding reaction was monitored by generation of real time sensorgrams as described in the previous examples and presented as subtracted curves from the blank FC1 dextran reference surface.
A series of three concentration SPR binding experiments were carried out with peptides derived from the peptide P4 sequence (SEQ ID No. 7). These peptides were designed in order to determine the significance of single peptide 4-contained (P4) amino acid residues in binding compound NVA1309. The following peptides were prepared:
Synthetic peptides were covalently coupled to optical sensor chips via the terminal cysteines following the Biacore thiol coupling procedure and SPR binding experiments were run exactly under the same conditions as described in the previous examples. Relative binding strengths of the single peptides were read from three concentration RU400 values and calculated as percentage binding of the peptide P4 reference (P4: RU400=100%). […]

[2] = molecular target: T1, Peptide P3 (SEQ ID No. 6), carboxy terminal region of the VGGC_α2 domain of α2δ-1 (Homo sapiens, UniProt P54289); test: SPR binding to immobilized synthetic peptide P3; conditions: RU400, subtracted from blank dextran reference; 0.5-2 mM
T1 construct: three glycines and a terminal cysteine (Peptide 3); made in house; host or cells: chemical synthesis
T1 sequence (P54289 with tags, fused parts or gaps limits assumed): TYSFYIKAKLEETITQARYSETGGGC
Source text: A synthetic peptide was constructed, representing the carboxy terminal of the VGGC_α2 domain of α2δ-1, carboxy-terminally fused to a flexible spacer consisting of three glycines and a terminal cysteine (Peptide 3; SEQ ID No. 6):
as §1, with “using the Biacore Thiol Coupling Kit” for “as described in Example 4”, “procedure. This strategy allows for uniform surface presentation of the immobilized peptide molecules and provides freedom to adopt a steric conformation determined by the amino acid sequence of the peptide.” for “procedure.”, “(see FIG. 13A).” for “(FIGS. 14A & 14B).”
Sensorgram running conditions were: • Compound stock solution: 50 mM, Dimethyl sulfoxide (DMSO) DMSO • Compound working dilution: 0.5-2 mM • Running buffer: HBS-P (Biacore) • Flow rate: 30 μl/min

[3] = molecular target: Peptide 1 (P1; SEQ ID No. 4) comprising the gabapentin/pregabalin binding site of α2δ-1 (Homo sapiens, UniProt P54289); test: SPR binding to immobilized synthetic peptide P1; conditions: RU400, subtracted from blank dextran reference
Chain of Peptide 1 (P1; SEQ ID No. 4) comprising the gabapentin/pregabalin binding site of α2δ-1 (P54289 with tags, fused parts or gaps limits assumed): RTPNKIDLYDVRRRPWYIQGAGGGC
Description: Thiol coupling allows for uniform surface presentation of the immobilized peptide molecules and provides freedom to adopt a steric conformation that is determined by the amino acid sequence of the peptide.
Sensorgram running conditions were: • Compound stock solution: 50 mM, DMSO • Compound working stock dilution: 0.5-2 mM • Running buffer: HBS-P • Flow rate: 30 μl/min

[4] = molecular target: truncated recombinant α2δ-1 protein, Construct 1 (SEQ ID No. 2) (Homo sapiens, UniProt P54289); test: SPR binding of analyte to immobilized truncated α2δ-1 construct 1; conditions: RU400, subtracted from human IgG reference; NVA1309 at increasing concentrations, pregabalin at 500 μM
Chain of truncated recombinant α2δ-1 protein, Construct 1 (SEQ ID No. 2) (P54289 with tags, fused parts or gaps): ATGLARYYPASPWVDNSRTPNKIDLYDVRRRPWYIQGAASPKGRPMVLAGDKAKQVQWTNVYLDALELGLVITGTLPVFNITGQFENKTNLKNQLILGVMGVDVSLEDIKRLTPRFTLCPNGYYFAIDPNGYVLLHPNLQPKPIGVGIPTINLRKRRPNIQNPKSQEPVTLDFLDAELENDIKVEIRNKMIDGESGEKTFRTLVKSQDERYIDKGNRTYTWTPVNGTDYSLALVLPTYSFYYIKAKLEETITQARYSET

[5] = molecular target: human voltage-gated calcium channel subunit α2δ-1 (Homo sapiens, UniProt P54289)
Chain of human voltage-gated calcium channel subunit α2δ-1 (P54289 25-1103): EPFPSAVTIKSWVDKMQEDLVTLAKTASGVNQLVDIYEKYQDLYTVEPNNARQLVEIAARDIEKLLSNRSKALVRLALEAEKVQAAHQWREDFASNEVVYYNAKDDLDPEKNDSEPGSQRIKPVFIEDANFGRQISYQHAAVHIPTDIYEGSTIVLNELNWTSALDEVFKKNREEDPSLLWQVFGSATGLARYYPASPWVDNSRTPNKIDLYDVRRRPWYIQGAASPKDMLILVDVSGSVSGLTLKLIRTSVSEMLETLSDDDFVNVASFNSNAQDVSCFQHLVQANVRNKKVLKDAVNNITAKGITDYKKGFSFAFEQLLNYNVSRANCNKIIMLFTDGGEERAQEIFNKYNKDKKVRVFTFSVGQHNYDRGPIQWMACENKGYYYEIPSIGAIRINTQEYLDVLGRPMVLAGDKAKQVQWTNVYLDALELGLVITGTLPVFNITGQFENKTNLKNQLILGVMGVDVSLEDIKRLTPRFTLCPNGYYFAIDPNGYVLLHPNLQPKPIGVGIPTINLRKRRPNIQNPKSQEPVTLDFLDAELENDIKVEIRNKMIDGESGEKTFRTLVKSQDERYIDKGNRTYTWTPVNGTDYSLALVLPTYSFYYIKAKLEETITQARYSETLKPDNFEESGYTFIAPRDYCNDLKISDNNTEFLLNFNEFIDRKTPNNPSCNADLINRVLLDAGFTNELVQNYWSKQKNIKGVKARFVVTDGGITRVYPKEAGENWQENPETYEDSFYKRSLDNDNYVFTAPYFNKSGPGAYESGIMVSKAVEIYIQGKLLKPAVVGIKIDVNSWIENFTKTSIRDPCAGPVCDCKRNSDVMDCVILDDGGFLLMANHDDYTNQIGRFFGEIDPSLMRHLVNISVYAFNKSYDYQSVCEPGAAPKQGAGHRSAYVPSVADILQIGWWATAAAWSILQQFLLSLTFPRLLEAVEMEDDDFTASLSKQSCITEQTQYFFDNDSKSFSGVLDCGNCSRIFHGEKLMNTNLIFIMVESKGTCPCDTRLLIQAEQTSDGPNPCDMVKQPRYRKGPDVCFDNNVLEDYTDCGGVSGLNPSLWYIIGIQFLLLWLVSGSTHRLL

[6] = molecular target: T2, α2δ-1 recombinant peptide (SEQ ID No. 5) containing the VGCC_α2 domain (Homo sapiens, UniProt P54289); test: biochemical
T2 sequence (P54289 528-668): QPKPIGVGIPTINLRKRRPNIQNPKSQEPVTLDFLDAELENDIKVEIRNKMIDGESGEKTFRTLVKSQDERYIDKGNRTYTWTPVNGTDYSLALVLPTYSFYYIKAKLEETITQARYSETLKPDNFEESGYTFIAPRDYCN
Description: (§2) The equilibrium dissociation constant KD=kd/ka was calculated and provides a single concentration estimate of the compound target binding affinity.

[7] = molecular target: T2, α2δ-1 recombinant peptide (SEQ ID No. 5) containing the VGCC_α2 domain; conditions: Langmuir 1:1 fit, single concentration data
Description: as §2

[8] = molecular target: T3, truncated recombinant α2δ-1 protein, Construct 2 (SEQ ID No. 3) (Homo sapiens, UniProt P54289); test: SPR binding of analyte to immobilized truncated α2δ-1 construct 2; conditions: RU400, subtracted from human IgG reference; NVA1309 at increasing concentrations, pregabalin at 500 μM
T3 construct: His tag; GST; made in house; host or cells: CHO cells (transient expression)
T3 sequence (P54289 with tags, fused parts or gaps): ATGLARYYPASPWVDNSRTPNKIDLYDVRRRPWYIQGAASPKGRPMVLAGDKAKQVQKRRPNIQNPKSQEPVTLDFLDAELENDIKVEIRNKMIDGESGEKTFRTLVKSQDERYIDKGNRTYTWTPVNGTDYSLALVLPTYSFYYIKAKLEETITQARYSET
Description: Binding experiments were carried out using Surface Plasmon Resonance (SPR) technology in a Biacore instrument. Recombinant construct 1 and construct 2 were immobilized on the surface of two different flow cells (FC2 and FC3, respectively) of a Biacore CM5 optical sensor chip by covalent amine coupling chemistry, using the Biacore amine coupling kit and following the Biacore amine coupling protocol. Human IgG was immobilized to the reference flow cell FC1 as intra-assay background binding control.

[9] = molecular target: T4, α2δ-1 recombinant peptide (SEQ ID No. 5) comprising the VGCC_α2 domain (Homo sapiens, UniProt P54289); test: SPR binding to immobilized α2δ-1 recombinant peptide; conditions: RU400, subtracted from BSA reference; 0.5-2 mM
T4 construct: purchased CUSABIO CSB-YP004407HU; host or cells: yeast
T4 sequence (P54289 528-668): as the sequence (P54289 528-668) above
Source text: The α2δ-1 recombinant peptide comprising the VGGC_α2 domain and containing a single cysteine near the carboxy terminus, was immobilized on the surface of a Biacore CM5 optical sensor chip using the Biacore Thiol Coupling Kit following the covalent thiol coupling chemistry. This immobilization process provides a sterically more uniform attachment of the ligand molecules to the sensor chip surface than the randomized amine coupling procedure. Bovine serum albumin (BSA) was immobilized to the reference flow cell FC1 as intra-assay background binding control. Compound NVA1309 was injected as analyte at increasing concentrations and the binding reaction was monitored by generation of real time sensorgrams, presented as subtracted curves from the BSA reference (see […]).
Sensorgram running conditions were: • Compound stock solution: 50 mM, Dimethyl sulfoxide (DMSO) DMSO • Compound working dilution: 0.5-2 mM • Running buffer: HBS-P • Flow rate: 30 μl/min

[10] = test system: α2δ-1; conditions: partial sciatic ligation neuropathy, α2δ-1−/− mice; cited from earlier work
[11] = molecular target: T5, α2δ-1 (RRR mutated to RRA) (Mus musculus, UniProt O08532, R241A); conditions: knock-in mutant mouse; cited from earlier work
T5 construct: host or cells: knock-in mutant mouse (in vivo)
T5 sequence (O08532 25-1103 R241A): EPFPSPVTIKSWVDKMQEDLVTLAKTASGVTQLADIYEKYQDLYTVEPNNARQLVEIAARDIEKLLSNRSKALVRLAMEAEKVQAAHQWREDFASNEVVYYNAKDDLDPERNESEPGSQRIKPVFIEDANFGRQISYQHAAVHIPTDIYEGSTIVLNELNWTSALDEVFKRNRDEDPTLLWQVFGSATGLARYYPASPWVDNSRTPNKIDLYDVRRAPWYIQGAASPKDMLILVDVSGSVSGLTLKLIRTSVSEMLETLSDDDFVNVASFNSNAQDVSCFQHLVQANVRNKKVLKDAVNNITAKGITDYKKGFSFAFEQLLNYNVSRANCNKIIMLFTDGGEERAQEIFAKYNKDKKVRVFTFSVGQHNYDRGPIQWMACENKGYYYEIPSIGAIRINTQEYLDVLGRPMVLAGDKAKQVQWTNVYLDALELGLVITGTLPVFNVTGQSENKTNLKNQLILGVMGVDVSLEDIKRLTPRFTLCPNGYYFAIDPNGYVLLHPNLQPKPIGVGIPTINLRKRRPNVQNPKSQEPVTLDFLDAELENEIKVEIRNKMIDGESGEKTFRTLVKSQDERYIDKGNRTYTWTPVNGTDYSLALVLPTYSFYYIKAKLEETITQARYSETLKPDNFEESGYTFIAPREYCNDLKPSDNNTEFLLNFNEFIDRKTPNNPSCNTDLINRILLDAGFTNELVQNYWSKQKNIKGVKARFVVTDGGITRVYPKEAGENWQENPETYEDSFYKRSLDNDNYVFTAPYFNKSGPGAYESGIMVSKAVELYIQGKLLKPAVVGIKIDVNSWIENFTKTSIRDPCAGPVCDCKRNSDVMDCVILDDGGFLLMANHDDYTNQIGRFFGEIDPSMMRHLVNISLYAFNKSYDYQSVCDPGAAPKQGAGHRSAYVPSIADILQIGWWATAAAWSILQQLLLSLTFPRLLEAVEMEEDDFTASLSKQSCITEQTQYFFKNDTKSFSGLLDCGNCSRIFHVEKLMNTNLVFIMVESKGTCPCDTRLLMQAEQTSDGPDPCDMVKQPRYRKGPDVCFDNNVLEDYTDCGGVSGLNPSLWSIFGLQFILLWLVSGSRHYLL
T5 sequence (O08532 958-1103 partner limits assumed): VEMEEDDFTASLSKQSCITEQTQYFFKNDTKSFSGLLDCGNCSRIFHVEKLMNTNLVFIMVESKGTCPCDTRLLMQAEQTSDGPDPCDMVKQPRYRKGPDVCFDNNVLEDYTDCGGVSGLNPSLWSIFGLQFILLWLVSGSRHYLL

[12] = P4 RU400=100%, P4 scanning (Example 6)

Molecule	% BINDING (RU400) 0.5 mM [1, 12]	% BINDING (RU400) 1 mM [1, 12]	% BINDING (RU400) 2 mM [1, 12]	% BINDING (RU400) mean ([1]; P4=100%, Example 6)	% BINDING (RU400) 0.5 mM ([1]; P4=100%, Example 7)	% BINDING (RU400) 1 mM ([1]; P4=100%, Example 7)	% BINDING (RU400) 2 mM ([1]; P4=100%, Example 7)	% BINDING (RU400) mean ([1]; P4=100%, Example 7)	also measured
LRVRIDDSLSNVGGGC (Peptide P9, P4 analogue - all aa substituted by most similar ones + GGGC anchor)	1%	1%	2%	1.3%	–	–	–	–	–
IKAKGGGC (Peptide P15, P4 analogue containing only the amino-terminal part of P4 + GGGC anchor)	–	–	–	–	19%	25%	26%	23%	–
IKAKLEETITQAGGGC (Peptide P4, carboxy-terminal VGGC_a2 region (II) + GGGC anchor) [carboxy-terminal VGGC_α2 region (II) + GGGC anchor, positive control]	100%	100%	100%	100%	100%	100%	100%	100%	–
ETITQARYSETLKPGGGC (Peptide P6, carboxy-terminal VGGC_a2 region (IV) + GGGC anchor) [C-terminal P4 extension + GGGC anchor]	9%	7%	9%	8.3%	–	–	–	–	NVA1309 binding to the peptide, in words [1]: significant loss of NVA1309 binding capacity
CCC1=C[C@@H]2[C@H](C1)C[C@]2(CN)Cc1nnn[nH]1 [NVA1309, [(1R,5S,6S)-3-Ethyl-6-(1H-tetrazol-5-ylmethyl)-6-bicyclo[3.2.0]hept-3-enyl]methanamine]	–	–	–	–	–	–	–	–	SPR binding to immobilized peptide P3 [2]: concentration dependent binding; SPR binding to immobilized peptide P1 [3]: concentration-dependent binding; SPR binding to immobilized construct 1 [4]: concentration-dependent binding; IC50 ([5]; recombinant membranes over-expressing the human α2δ-1 subunit (PCT/EP2014/077937); read-out: IC50 of binding; cited from earlier work): 2.1 nM; Kd [6]: 33.8 nM; kon ([6]; read-out: ka): 18000 M⁻¹ s⁻¹; kd [7]: 0.00061 s⁻¹; SPR binding to immobilized construct 2 [8]: concentration-dependent binding; SPR binding to immobilized α2δ-1 recombinant peptide [9]: concentration-dependent binding
CC(C)C[C@H](CN)CC(=O)O [Pregabalin, reference compound]	–	–	–	–	–	–	–	–	SPR binding to immobilized peptide P1 [3]: no positive SPR signal; SPR binding to immobilized construct 1 [4]: lack of pregabalin binding; IC50 ([5]; read-out: IC50 of binding; recombinant membranes over-expressing the human α2δ-1 subunit (PCT/EP2014/077937); cited from earlier work): 23 nM; ability to alleviate mechanical hypersensitivity [10]: lost; alleviating chronic pain resulting from nerve injury [11]: no longer effective; SPR binding to immobilized construct 2 [8]: lack of pregabalin binding
AQTITEELKAKIGGGC (Peptide P8, Inverse peptide P4 + GGGC anchor)	3%	2%	2%	2.3%	–	–	–	–	NVA1309 binding to the peptide, in words [1]: lack of binding
IKAALEETITQAGGGC (Peptide P14, P4 analogue with Lysine in position 4 (K) substituted by Alanine (A) + GGGC anchor) [P4 analogue, K4 A-substituted + GGGC anchor]	–	–	–	–	0%	11%	6%	6%	–
IAAKLEETITQAGGGC (Peptide P13, P4 analogue with Lysine in position 2 (K) substituted by Alanine (A) + GGGC anchor) [P4 analogue, K2 A-substituted + GGGC anchor]	–	–	–	–	133%	88%	90%	104%	–
IKAKLEEAIAQAGGGC (Peptide P12, P4 analogue - polar side chains A-substituted + GGGC anchor)	14%	15%	17%	15.3%	–	–	–	–	–
IKAKLAATITQAGGGC (Peptide P11, P4 analogue - negatively charged side chains A-substituted + GGGC anchor)	23%	22%	25%	23.3%	–	–	–	–	–
IAAALEETITQAGGGC (Peptide P10, P4 analogue - positively charged side chains A-substituted + GGGC anchor)	4%	4%	4%	4%	–	–	–	–	–
